Reference: patent publication US12551493B2, “Composition for enhancing therapeutic effect of stem cell, comprising immunosuppressant, and method for enhancing therapeutic effect of stem cell using same” (SAMSUNG LIFE PUBLIC WELFARE FOUNDATION, priority 2019, dated 2026)

Tests used:
Format in all cases: in vivo
[1] = test system: human-derived mesenchymal stem cells (hMSCs); assay: qPCR of human-specific ALU DNA sequence in mouse brain (residual amount of hMSCs); conditions: normal C57B/L6 mice, hMSCs plus immunosuppressant, compared to hMSC-alone administration group
helper T cells (CD4) = assay: IHC of helper T cells (CD4) in mouse brain after hMSC administration; conditions: normal C57B/L6 mice, hMSCs plus immunosuppressant, day 7, compared to hMSC group
Description: (§1) On day 7 after administration of MEM or hMSCs, the brain was extracted by performing cardiac perfusion, and then fixed in PFA, and histological staining was performed by sectioning tissue.
(§2) MEM or hMSCs were administered to normal C57BL/6 and immunodeficient BALB/c nude mice under the same conditions as in Example 3. […]

Iba-1 microglia = assay: IHC of Iba-1 microglia in mouse brain after hMSC administration; conditions: normal C57B/L6 mice, hMSCs plus immunosuppressant, day 7, compared to hMSC group
Description: as §1, §2

## C=CC[C@@H]1/C=C(\C)C[C@H](C)C[C@H](OC)[C@H]2O[C@@](O)(C(=O)C(=O)N3CCCC[C@H]3C(=O)O[C@H](/C(C)=C/[C@@H]3CC[C@@H](O)[C@H](OC)C3)[C@H](C)[C@@H](O)CC1=O)[C@H](C)C[C@@H]2OC [tacrolimus]
[1]
  retention rate (survival rate) of stem cells (qPCR): enhanced
Helper T cells (CD4)
  expression of CD4 (IHC): reduced
Iba-1 microglia
  expression of Iba-1 (IHC): not statistically significant
